The results in this text go back to a melting point compilation (Tetko et al.; mined from patent text by program, amines drawn as free bases though some values may be those of a salt).

Each structure is given as a SMILES string.

A word on the melting point: it is the temperature of the solid-liquid transition.

In the case of `CC(=O)SCC(Cc1ccccc1)C(=O)Nc1cccc(C(=O)OCCOc2ccccc2)c1` (stereo not given), the melting point fell in the range of 90 to 92 °C.

As to `COc1ccccc1Sc1c(Cl)nc(C)nc1Cl`, the melting point worked out at 140 °C.

For `CC(C)(O)c1cccc(-c2ccc3nc(-c4ccc(Cl)cc4)c(F)n3c2)c1`, the melting point lay in the range of 174 to 175 °C.

In turn, `O=C(O)COc1ccc(C(=O)c2ccccc2O)c(Cl)c1Cl` came in with a melting point of 201 to 203 °C.

In turn, `O=C(NC(C(=O)O)C1CC(Cl)=NO1)OCC1c2ccccc2-c2ccccc21` (stereo not given) yielded a melting point of 175 to 176 °C.

`OCCC1(c2ccccc2)CCNCC1`: the melting point was 120 °C.

Regarding `CC(=O)N(C)C12CCCCC1Oc1ccccc12` (stereo not given), the melting point lay within 138 to 139 °C.

`CCCCOc1ccc(S(=O)(=O)C2(C(=O)NO)CCN(CC)CC2)cc1`: the melting point stood at 98 °C.

For the molecule `CN(C)c1ccc(C2OCCN2CCNc2ccc(NCCN3CCOC3c3ccc(N(C)C)cc3)c3c2C(=O)c2c(O)ccc(O)c2C3=O)cc1` (stereo not given), the melting point lay within 150 to 154 °C.

Take `CC(C)N(Cc1cccs1)C(=O)C12CC3CC(CC(C3)C1)C2`: the melting point was 156 to 158 °C.

For the molecule `CCc1nn(C)c(NC(=O)Cc2ccc(Br)cc2)c1Cl`, the melting point was in the range of 167 to 168 °C.

Molecule `CCC(C)CNC(=O)c1ccc2cccc(Cc3ccc(C(=O)O)cc3OC)c2c1` (stereo not given) yielded a melting point of 220 to 221 °C.

`Cc1noc(-c2cccc(Oc3ccc4c(c3)S(=O)(=O)NCCO4)c2)n1`: the melting point is 140 °C.

The molecule `Nc1nc(Br)cn2c(Br)cnc12` returned a melting point of 246 °C.

In turn, `COC(=O)C1=C(C)NC(C)=C(Cl)C1c1ccccc1` (stereo not given) gave a melting point of 147 °C.

`CCCCCCCCCC1CNC(=O)O1` (stereo not given): the melting point fell in the range of 83 to 85 °C.

The molecule `CCSC(c1ccc(Cl)cc1Cl)C(C(O)C(C)(C)CF)n1cncn1` (stereo not given) showed a melting point of 182 °C.

For `Cc1ccc(S(=O)(=O)N(C)c2ccc(C)c([N+](=O)[O-])c2)cc1`, the melting point is 104 to 106 °C.

Regarding `CC(C)(C)c1ccc(COc2ccc(S(=O)(=O)NC[C@@H](C(=O)NO)N3CCOCC3)cc2)cc1`, the melting point is 137 °C.

`CC(C)c1ccc(N(Cc2ccc(N(C)C)cc2)C(=O)C2CCS(=O)(=O)c3ccccc32)cc1` (stereo not given) had a melting point of 185 to 187 °C.

`CC(C)(C)CC(NC(=O)c1ccc(C(F)(F)F)cc1)NC(=NS(=O)(=O)C(F)(F)F)Nc1cccnc1` (stereo not given): the melting point lay in the range of 192 to 193 °C.

For the molecule `CC(=O)C1CCCS1(=O)=O` (stereo not given), the melting point lay within 119 to 120 °C.

`Oc1ccc2c(c1)nnc1ccccc12` registered a melting point of 274 to 277 °C.

As for `COc1ccc(N)c(C(=O)O)c1OC`, the melting point lay in the range of 71 to 72 °C.

`Cc1nn(C(CCCc2ccccc2)C(C)O)c2ncn(Cc3ccc(Cl)c(Cl)c3)c(=O)c12` (stereo not given) returned a melting point of 160 °C.

Molecule `O=C(O)Cc1cccc(C(=O)c2ccc(OCc3ccc4ccccc4n3)cc2)c1` displayed a melting point of 146 to 147 °C.

Molecule `O=C1CCC(c2ccc(N=C(CCc3ccccc3)c3ccc(O)cc3O)cc2)=NN1` showed a melting point of 208 to 210 °C.

Regarding `O=C(O)c1ccc(O)c(Cl)c1Cl`, the melting point is 200 °C.

Consider `N#Cc1cc(O)n(-c2ccccc2)n1`, for which the melting point is 190 °C.

Take `CC(=O)NC[C@H]1CN(c2cc(F)c(C3CCN(C(=O)COCc4ccccc4)CC3)c(F)c2)C(=O)O1`: the melting point was in the range of 169 to 171 °C.

In turn, `CNC(=O)n1c(N=Cc2ccc([N+](=O)[O-])o2)nc2ccccc21` gave a melting point of 170 to 171 °C.

With `CCC(C)(C)NCC(O)c1ccc(O)c(O)c1OC` (stereo not given), the melting point is 172 to 174 °C.

On to `Cc1cc(C)cc(C(=O)c2ccc(O)c(CC(=O)O)c2)c1`, for which the melting point turned out to be 242 °C.

Turning to `CC(C)(C)OC(=O)N[C@H]1CCc2ccc(OCCCC(=O)O)cc2C1`, the melting point was 150 to 153 °C.

As to `COCOc1cccc(Cn2nc(C(=O)OC)c3c2-c2ccc(OCc4cncnc4)cc2CC3)c1`, the melting point was in the range of 178 to 180 °C.

As to `Nc1ccc(Oc2ccc(Oc3ccc(N)cc3)c(P(=O)(c3ccccc3)c3ccccc3)c2)cc1`, the melting point lay in the range of 205 to 208 °C.

Consider `Nc1ccc(C2(c3ccc(F)cc3)OCCO2)cc1[N+](=O)[O-]`, for which the melting point stood at 105 °C.

Regarding `O=c1cc(-c2cc(F)c(O)c(F)c2)oc2ccccc12`, the melting point was 275 to 276 °C.

`CC(C)C[C@H](NC(=O)OCc1ccccc1)C(=O)N[C@H]1CCOC1O` (stereo not given in full) showed a melting point of 48 to 49 °C.

`COc1cc(NC(=O)OC(C)(C)C)cc(OC)c1SC` came in with a melting point of 124 to 126 °C.

For `CCCCCc1ccc(C=Nc2ccc(C#N)cc2)cc1`, the melting point was 45.6 to 46.4 °C.

The molecule `CC(=O)OCCCCCCOc1ccccc1C(=O)Nc1ccc(C(=O)N2CCCCc3ccccc32)cc1` came in with a melting point of 145 to 146 °C.

Molecule `Cc1nc(-c2ccc(OC3CCCCO3)cc2)cc(-c2c(Cl)ccc(Cl)c2Cl)c1C#N` (stereo not given) came in with a melting point of 148 to 152 °C.

`CCC[C@H]1CC[C@H](c2ccc(-c3ccccc3)c(F)c2)CC1` showed a melting point of 96.5 to 97.3 °C.

`CC(C)=CCO[C@H]1NC(=O)[C@@H]1NC(=O)c1ccccc1`: the melting point was found to be 92 °C.

`COC(=O)c1nsc(NC=O)n1` came in with a melting point of 210 to 215 °C.

For `CC1(C)Nc2ccccc2-c2c(N)cnn21`, the melting point was 181 to 183 °C.

`CN(C)CCCN(C)C(=O)NC(Cc1c[nH]c2ccccc12)C(=O)CCc1cc(C(F)(F)F)cc(C(F)(F)F)c1` (stereo not given) showed a melting point of 135 to 137 °C.

`CCCC(=O)NC[C@@H]1CN(c2nc3c(cc2F)c(=O)c(C(=O)OCC)cn3C2CC2)C[C@H]1F` (relative stereo) registered a melting point of 105 to 107 °C.

Turning to `CC(=O)Nc1ccc(C(C)=NNc2ccc(C3=NNC(=O)CC3C)cc2)cc1` (stereo not given), the melting point was in the range of 145 to 155 °C.

`COCOc1cc(F)ccc1-c1cc(-c2cccc(N)c2)c(C#N)c(NC(=O)c2ccco2)n1` displayed a melting point of 204 to 206 °C.

As for `CC(O)C(=O)NC1CCC(CC2CCC(NC(=O)C(C)O)CC2)CC1` (stereo not given), the melting point lay in the range of 195 to 199 °C.

As for `CC(C)(S)C(=O)N[C@@H](CS)C(=O)O`, the melting point is 139 to 140 °C.

In turn, `CC1(C)C(=O)C(C)(C)c2cc3[nH]c(SCc4ccccn4)nc3cc21` registered a melting point of 167 to 168 °C.

`CCc1oc(-c2ccc(C(F)(F)F)cc2)cc1CCC(=O)O` registered a melting point of 94 to 95 °C.

With `Cc1cccc(C(CCC(=O)O)Oc2cc(OCc3cccnc3)ccc2C#N)c1C` (racemic), the melting point lay in the range of 187 to 189 °C.

Molecule `COC(=O)c1c(C(F)(F)F)[nH]c2c(OCc3ccccc3)cc3c(c12)C(CCl)CN3C(=O)OC(C)(C)C` (stereo not given) showed a melting point of 162 °C.

The molecule `CCN1C(c2ccccc2C(=O)c2ccc(Cl)cc2)=NCC1(C)C` had a melting point of 85 to 87 °C.

`COC(=O)c1cc(F)c(O)nc1Nc1ccc(F)cc1F` had a melting point of 222 to 223 °C.

In the case of `Cc1c(C)c2c(c(C)c1NC=O)CC(C)(C)O2`, the melting point lay in the range of 177 to 179 °C.

In turn, `CCCn1nc(-c2ccc(O)c(Cl)c2)c2cccc(Cl)c21` yielded a melting point of 145 to 146 °C.

In the case of `Cc1ccccc1-n1ccc(=O)c(-c2ccnn2-c2ccccc2)n1`, the melting point lay within 120 to 121 °C.

For the molecule `C[N+]([O-])=C(Cn1ccnc1)c1ccc(F)cc1`, the melting point is 81 to 84 °C.

Take `COC1(c2cc(F)cc(OCc3ccc(-n4ccnc4C)cc3)c2)CCOCC1`: the melting point stood at 168 °C.

Molecule `CC(=O)Nc1ccc2[nH]c(CO)cc2c1` registered a melting point of 161 °C.

As for `O=C1c2cc(OCc3ccc4ccccc4n3)ccc2CCC1Cc1ccccc1` (stereo not given), the melting point lay in the range of 117 to 118 °C.

`O=C1NC(=O)c2c1c(-c1ccccc1)cc1c2c2cc(O)ccc2n1CCn1ccnc1` came in with a melting point of over 345 °C.

In the case of `COc1cc2ncnc(N3CCC(O)(CCI)CC3)c2cc1OC`, the melting point fell in the range of 179 to 181 °C.

The molecule `COc1ccc(CNc2cc(Cn3c(C(=O)c4cc(C)cc(C)c4)c(C(C)C)c(=O)[nH]c3=O)cc(Cl)n2)cc1` came in with a melting point of 211 to 212 °C.

As for `O=C(c1ccc(F)cc1)N(CCCCn1ccnc1)C1=Nc2cccc3cccc1c23`, the melting point lay within 109 to 110 °C.

Molecule `CCc1c(CC(=O)NCCCCCCNC(=O)Cc2ccc(OC)c(OC)c2CC)ccc(OC)c1OC` gave a melting point of 169 to 172 °C.

Consider `COc1ccc(N(C(=O)OC(C)(C)C)S(=O)(=O)c2ccc(F)cc2)cc1OC`, for which the melting point was 99 to 102 °C.

Regarding `ON=C1CSc2ccccc2CN1`, the melting point fell in the range of 208 to 210 °C.

Molecule `CCCn1nc2c(N)nc3ccccc3c2c1CCCc1cc(-c2ccccc2)on1` registered a melting point of 172 to 173 °C.

The molecule `CCC(CC)C(NS(=O)(=O)c1ccc(Cl)s1)c1ncnn1Cc1ccc(OC)cc1` (stereo not given) came in with a melting point of 136 to 137 °C.

In turn, `CC1=CCCC2C1(C)CCC(C)C2(C)CC1=CC(=O)C=CC1=O` (stereo not given) gave a melting point of 62 to 64 °C.

In the case of `OCCCCCCCCOc1ccc(-c2ccccc2)cc1`, the melting point lay in the range of 101 to 103 °C.

Consider `CCOC(=O)C1=CCCCC1S(=O)(=O)Nn1c(C)ccc1C` (stereo not given), for which the melting point was 96 to 97 °C.

`C[C@@H]1S[C@@H](C(=O)Nc2ccc(Cn3oc(=O)[nH]c3=O)cc2)Cc2cc3c(cc2C1=O)OCO3`: the melting point lay within 237 to 239 °C.

As for `CCc1nn(CCCO)c(CC)c1Oc1cc(C#N)cc(C#N)c1`, the melting point was in the range of 93 to 95 °C.

Molecule `C#CCN1CCC(OC)(c2cccc(OCc3ccc4ccccc4c3)c2)C1` (stereo not given) displayed a melting point of 63 to 65 °C.

In turn, `COc1cccc2c1S(=O)(=O)NC(C1CCCCC1)N2` (stereo not given) yielded a melting point of 221 to 223 °C.

In turn, `C(=Cc1c[nH]cn1)CC(c1ccccc1)c1ccccc1` came in with a melting point of over 240 °C.

As to `Clc1ccccc1N=Nc1ncc[nH]1`, the melting point fell in the range of 173 to 177 °C.

The molecule `CN(C[C@H]1CC[C@H](NC(=O)OCc2ccccc2)CC1)C1CCOCC1` had a melting point of 81 to 84 °C.

With `Cc1cc2nc(-c3ccc(F)cc3)cn2nc1Cl`, the melting point was in the range of 196 to 198 °C.

The molecule `CNC(C(=O)O)c1ccc(Cl)cc1` (stereo not given) registered a melting point of 208 to 213 °C.

For `Clc1ccccc1Oc1ccnc2c(Cl)cccc12`, the melting point was in the range of 56 to 58 °C.

As for `CCC(=O)Nc1ccc(C(=O)C(C)Br)cc1` (stereo not given), the melting point fell in the range of 126 to 127 °C.

`CCCc1nc(C=O)c(Cl)c(N)c1F`: the melting point was 89 to 91 °C.
